Experimental data published in PMC12830989, “Subcellular glycan-mannose receptor binding kinetics correlate with myeloid cell function” (Nature Communications, 2025).
Where “and” joins values, the source holds several entries; their conditions need not be identical. Identical values can stand only once. sCy5 = sulfo-Cy5

Key:
WT BMDC (CD11c+) = assay: Glycan SLP uptake by flow cytometry (phagocytic index), WT BMDC; type: cell-based, mouse; conditions: for phagocytic index: Fig 4d source data, BMDC incubated 1 h with probe, CD11c+ cells, per experiment, two technical replicates
Method: 2.5 x 10^5 WT, MR^−/− BMDC or BMDM were seeded after treatment with polarizing stimulus as described below in a 96 well v-bottom plate (Sarstedt, 82.1583001). The next day, Glycan SLP probes were added to the cells at 250 nM and incubated for 1 h at 37 °C. Active uptake was halted by addition of ice-cold PBS and washed twice with PBS + 2% FCS + 2 mM EDTA (300 rcf, 5 min., rt). Cells were stained with a selection of the following stains and antibodies: Zombie Yellow (Biolegend, 423103, 1:500), TruStain FcX (Biolegend, cat no 101319, 1:100), CD11c - eFluor450 (clone: N418, eBioscience, cat no 48-0114-82, dilution 1:200), CD206-AF488 or AF647 (clone: MR5D3, Biorad, MCA2235A488T, 1:20), CD86-PerCP (Biolegend, cat no 105025, clone GL-1, 1:200), F4/80-APC-Cy7 (Biolegend, cat no 123117, clone BM8, dilution 1:400), MHC-II-AF488 (Biolegend, cat no 107615, clone M5/114.15.2, dilution 1:1000) for 30 min. on ice. Then cells were washed twice with PBS + 2% FCS + 2 mM EDTA and acquired on Guava EasyCyte 12HT. For BMDM uptake and characterization, an identical procedure was followed but acquisition was performed on Sony ID7000 spectral flow cytometer. Analysis was performed using FlowJo v8. Phagocytic index (PI) was calculated according to equation 1. Statistical analysis and plotting were performed using GraphPad Prism V10.1 PI=%sCy5^+cellsxMFIsCy5^+cells−%sCy5^−cellsxMFIsCy5^−cells

MR^−/− BMDC = assay: Glyco-PAINT-APP single-molecule glycan binding on live MR-/- BMDC; parameters: species or system mouse; conditions: Suppl. Fig 9, glycan SLP, median
Method: (§1) Single molecule imaging was performed on a Nikon Ti2 N-STORM system equipped with TIRF module, Z piezo element, perfect focus system for axial drift correction and an OkoLab incubator with temperature and CO2 controller (37 °C and 5% CO2) for live-cell imaging. Recordings were acquired using the 647 nm excitation laser (160 mW, 1.9 kW/cm^2). Upon laser excitation, fluorescence was collected by a 100x 1.49 NA oil-immersion objective, passed through a quad-band dichroic mirror (97335 Nikon), and detected by a Hamamatsu ORCA Flash 4.0 CMOS camera with 160 nm pixel size. The signal was collected using the following settings: 512 × 512 pixel region, no binning, pixel depth 16-bit, exposure time 50 ms, live-cell observation and 2D-STORM (lens out), zoom 1x, lens x0.4, and for live-cell observation at 37 °C, the correction collar was set to position 8160.
(§2) 5 x 10^4 CHO-MR or 1 x 10^5 WT, MR^−/− BMDC or BMDM were seeded in 8-well glass-bottomed microscopy slides (Ibidi, 80827) in complete medium. After equilibration in the microscope incubator, fluorescent glycan was added at 5 nM for CHO-MR and 10 nM for BMDC or BMDM experiments. Then, cells were brought into focus using brightfield illumination and 2000 frames (at 50 ms intervals) were recorded within a single field-of-view at 40–60% of maximum 647 nm laser power using TIRF illumination. For indicated experiments, Cytochalasin D (Focus Biomolecules) was added to a final concentration of 10 µM for 30 min prior to acquisition.
(§3) Processing of recordings using Glyco-PAINT-APP was performed as described in a step-by-step procedure in the Supplementary Software Manual in the Supplementary Information and accompanying Supplementary Videos 1 and 2. For the TrackMate processing, a batch file (Experiment Info.csv) containing the experiment metadata and tracking parameters was created. Threshold values were set to 5, 10 or 15 such that no more than 1.500.000 spots were detected. Recordings were then processed in TrackMate using the ‘Run TrackMate Batch’ plugin provided by the Glyco-PAINT-APP. Through this plugin, spot detection and tracking by TrackMate[70] was performed as indicated in the batch file using the Simple LAP tracker algorithm with a maximum frame gap of 3, a max linking distance of 0.6 μm and a gap closing max distance of 1.2 μm. Tracks with only two spots were discarded. For the parameter sensitivity analysis, each tracking or spot detection was varied as indicated, whilst the others were kept at aforementioned values (Basis scenario).
(§4) With the Glyco-PAINT-APP utility ‘Generate Squares’, a grid of squares was overlaid, and kinetic properties for each square were calculated. Default parameters for grid processing are (deviations are mentioned in figure captions): Nr of Squares in row 20, Minimum Tracks to Calculate Tau 20, Min allowable R Squared 0.1, Min Required Density Ratio 2, Maximum Allowable Variability 10 and Neighbour Mode Free.
(§5) For every recording, a background track count was calculated by averaging the track count of the 40 (10% of the total number of squares) least dense squares. Only squares for which the track count exceeded the Min Required Density Ratio of 2 were considered (and the remaining ignored as background). For each square, the variability was calculated and only squares for which the variability was less than the Maximum Allowable Variability of 10 were considered. For squares meeting both the Minimum Required Density Ratio and Maximum Allowable Variability criteria, and containing at least the Minimum Tracks to Calculate Tau kinetic parameters, including kon, koff and MSD were calculated as in Riera et al.[10], or copied from the TrackMate Tracks table output (for velocity, displacement, and track duration).

[1] = system: bone-marrow derived mouse dendritic cells (BMDCs); assay: Glyco-PAINT-APP single-molecule glycan binding on live WT BMDC; conditions: for koff−1 / kon: Suppl. Fig 9, glycan SLP, median; for population of squares with binding events of high mobility (high diffusion coefficient) and low event density (kon), uniquely present for WT cells: WT BMDC versus MR-/- BMDC, Fig 4a, b; for event density, dwell time and diffusion coefficient after CytD treatment: Cytochalasin D treated versus untreated
Method: as §1, §2, §3, §4, §5

| Substance | phagocytic index (WT BMDC (CD11c+)) | koff−1 (MR^−/− BMDC) | kon (MR^−/− BMDC) | koff−1 ([1]; BMDC + CytD) | kon ([1]; BMDC + CytD) | koff−1 ([1]; BMDC) | kon ([1]; BMDC) | population of squares with binding events of high mobility (high diffusion coefficient) and low event density (kon), uniquely present for WT cells [1] | uptake (phagocytic index) by BMDC (WT BMDC (CD11c+); 1 h incubation, sCy5 signal by flow cytometry) | event density, dwell time and diffusion coefficient after CytD treatment ([1]; BMDC) |
| --- | --- | --- | --- | --- | --- | --- | --- | --- | --- | --- |
| Ac-Lys(Man)-Gly-Lys(Man)-TEG-Asp-Glu-Val-Ser-Gly-Leu-Glu-Gln-Leu-Glu-Ser-Ile-Ile-Asn-Phe-Glu-Lys-Leu-Ala-Ala-Ala-Ala-Ala-Lys(sCy5)-NH2 ({Ac-K(Man)-Gly-K(Man)-TEG}-DEVSGLEQLESIINFEKLAAAAAK(sCy5)-NH2) [2 Mono(2), bivalent monomannosylated OVA SLP with sulfo-Cy5] | 468.878 and 326.94 and 575.997 and 867.184 and 474 and -18 | 151 ms | 2 evts μm−2 sec−1 | 81 ms | 3 evts μm−2 sec−1 | 96 ms | 2.4 evts μm−2 sec−1 | most prominent | – | – |
| Ac-Lys(Man)-Lys(Man)-Lys(Man)-Lys(Man)-Lys(Man)-Lys(Man)-TEG-Asp-Glu-Val-Ser-Gly-Leu-Glu-Gln-Leu-Glu-Ser-Ile-Ile-Asn-Phe-Glu-Lys-Leu-Ala-Ala-Ala-Ala-Ala-Lys(sCy5)-NH2 ({Ac-K(Man)-K(Man)-K(Man)-K(Man)-K(Man)-K(Man)-TEG}-DEVSGLEQLESIINFEKLAAAAAK(sCy5)-NH2) [6 Mono(3), hexavalent monomannosylated OVA SLP with sulfo-Cy5] | 351.961 and 267.849 and 647.297 and 867.13 and 676 and 415 | 180 ms | 6.3 evts μm−2 sec−1 | 116 ms | 2 evts μm−2 sec−1 | 76 ms | 2.1 evts μm−2 sec−1 | most prominent | – | – |
| Ac-Lys(Man)-TEG-Asp-Glu-Val-Ser-Gly-Leu-Glu-Gln-Leu-Glu-Ser-Ile-Ile-Asn-Phe-Glu-Lys-Leu-Ala-Ala-Ala-Ala-Ala-Lys(sCy5)-NH2 ({Ac-K(Man)-TEG}-DEVSGLEQLESIINFEKLAAAAAK(sCy5)-NH2) [1 Mono(1), monovalent monomannosylated OVA SLP with sulfo-Cy5] | 18.2246 and 7.8718 and 19.8915 and 23.9776 and -43 and 24 | 182 ms | 6.2 evts μm−2 sec−1 | 98 ms | 4.3 evts μm−2 sec−1 | 87 ms | 0.9 evts μm−2 sec−1 | not | – | – |
| Ac-Lys(triMan)-Gly-Lys(triMan)-TEG-Asp-Glu-Val-Ser-Gly-Leu-Glu-Gln-Leu-Glu-Ser-Ile-Ile-Asn-Phe-Glu-Lys-Leu-Ala-Ala-Ala-Ala-Ala-Lys(sCy5)-NH2 (DEVSGLEQLESIINFEKLAAAAAK; two Lys(triMan), TEG, sulfo-Cy5, C-amide; printed: Asp-Glu-Val-Ser-Gly-Leu-Glu-Gln-Leu-Glu-Ser-Ile-Ile-Asn-Phe-Glu-Lys-Leu-Ala-Ala-Ala-Ala-Ala-Lys) [2 Tri(5), bivalent trimannosylated OVA SLP with sulfo-Cy5] | 739.67 and 711.569 and 1725.6 and 1909.99 and 2022 and 1371 | 141 ms | 4.6 evts μm−2 sec−1 | 112 ms | 7 evts μm−2 sec−1 | 69 ms | 1.1 evts μm−2 sec−1 | not | most effectively taken up | increased significantly |
| Ac-Lys(triMan)-Lys(triMan)-Lys(triMan)-Lys(triMan)-Lys(triMan)-Lys(triMan)-TEG-Asp-Glu-Val-Ser-Gly-Leu-Glu-Gln-Leu-Glu-Ser-Ile-Ile-Asn-Phe-Glu-Lys-Leu-Ala-Ala-Ala-Ala-Ala-Lys(sCy5)-NH2 (DEVSGLEQLESIINFEKLAAAAAK; six Lys(triMan), TEG, sulfo-Cy5, C-amide; printed: Asp-Glu-Val-Ser-Gly-Leu-Glu-Gln-Leu-Glu-Ser-Ile-Ile-Asn-Phe-Glu-Lys-Leu-Ala-Ala-Ala-Ala-Ala-Lys) [6 Tri(6), hexavalent trimannosylated OVA SLP with sulfo-Cy5] | 418.118 and 415.333 and 1097.76 and 913.574 and 294 and 434 | 115 ms | 1.1 evts μm−2 sec−1 | 74 ms | 1.6 evts μm−2 sec−1 | 68 ms | 2.3 evts μm−2 sec−1 | most prominent | – | – |
| Ac-Lys(triMan)-TEG-Asp-Glu-Val-Ser-Gly-Leu-Glu-Gln-Leu-Glu-Ser-Ile-Ile-Asn-Phe-Glu-Lys-Leu-Ala-Ala-Ala-Ala-Ala-Lys(sCy5)-NH2 (DEVSGLEQLESIINFEKLAAAAAK; Ac-Lys(triMan)-TEG, sulfo-Cy5, C-amide; printed: Asp-Glu-Val-Ser-Gly-Leu-Glu-Gln-Leu-Glu-Ser-Ile-Ile-Asn-Phe-Glu-Lys-Leu-Ala-Ala-Ala-Ala-Ala-Lys) [1 Tri(4), monovalent trimannosylated OVA SLP with sulfo-Cy5] | 866.48 and 744.547 and 660.373 and 1168.46 and 1459 and 1224 | 160 ms | 6 evts μm−2 sec−1 | 124 ms | 1.5 evts μm−2 sec−1 | 88 ms | 1 evts μm−2 sec−1 | – | – | increased significantly |
